Series [1] relates to mouse model of generalised seizure. The following applies: data of PCT/GB2020/052944; cited from earlier work.
The nature of series [2]: Stability of 6-OH CBDV Form A to compression (XRPD after pressing). It is filed as physicochemical. The settings on record: ~60 mg in KBr pellet die, compressed overnight at ~370 MPa, analysed immediately by XRPD. On the procedure:
(§1) XRPD analyses were performed using a Panalytical Empyrean diffractometer equipped with a Cu X-ray tube and a PIXcel 1 D-Medipix3 detector system. The samples were analysed at ambient temperature in transmission mode and held between low density PVC films. The XRPD program parameters were: range 3-40° 2θ or 4-40° 2θ, step size 0.01313°, counting time 23 sec, ˜5 min run time. Samples were spun at 60 rpm during data collection. XRPD patterns were sorted, manipulated using HighScore Plus v4.9 software.
Crystalline Form A material (˜60 mg) was added to a KBr pellet die and compressed overnight at ˜370 MPa using a hydraulic press. The resultant solid disc was removed from the press and immediately analysed by XRPD.

Series [3] is described as follows: Stability of Form A to ball milling (XRPD after milling). The following applies: 6 minutes at 25 Hz. It is filed as physicochemical. The method, then:
as §1
A ball mill was used to mimic the effects of grinding that would be experienced during formulation steps such as dry blending and wet granulation.
Approximately 45 mg of crystalline Form A material was added to a milling chamber with an agate milling ball. Using a Retsch MM200 mixer mill, the material was milled for 6 minutes at a frequency of 25 Hz. Periodically, the milling was stopped and powder that adhered to the milling chamber was scraped down. The resultant milled material was analysed using XRPD. Samples were also milled with addition of a small amount of solvent (˜10 μL).

Take `C=C(C)[C@@H]1C[C@H](O)C(C)=C[C@H]1c1c(O)cc(CCC)cc1O` [6-OH CBDV, 6-hydroxy cannabidivarin]: the Anticonvulsant activity entry in series [1] is “displays anticonvulsant activity”.
On to `C=C(C)[C@@H]1C[C@H](O)C(C)=C[C@H]1c1c(O)cc(CCC)cc1O` [Form A, 6-hydroxy cannabidivarin], for which the “Solid form after compression (XRPD)” value in series [2] is given as “remained as Form A”. In addition, the “Output Form after milling (XRPD)” value in series [3] (dry ball milling, no solvent) was “no change in form”; in series [3] (wet ball milling, water (~10 μL)) it was “no change in form”.

Values taken from US20250289774A1, “[…] OF A CANNABIDIOL-LIKE CANNABINOID” (Jazz Pharmaceuticals Research UK Limited, priority 2022, published 2025).
